The subject of data set [1] is TGFβ downstream tonic signaling. The data set can be described thus: TGFβ downstream tonic signaling in non-diseased rat BAL. The class given is in vivo. From the text:
Indeed, data presented herein support this notion. […] Preferably, TGFβ antagonists for use in the treatment of such conditions exert their inhibitory activities only towards the disease-induced or disease-associated isoform, while preserving the function of the other isoforms that are normally expressed to mediate tonic signaling in the tissue. […] Alternatively or additionally, agents that target and block integrin-dependent activation of TGFβ may be capable of blocking only a subset of integrins responsible for disease-associated TGFβ1 activation, among numerous integrin types that are expressed by various cell types and play a role in the pathogenesis. Furthermore, even where such antagonists may selectively block integrin-mediated activation of the TGFβ1 isoform, it may be ineffective in blocking TGFβ1 activation triggered by other modes, such as protease-dependent activation. Accordingly, the isoform-specific inhibitors of TGFβ1 such as those described herein are aimed to prevent the activation step of TGFβ1 regardless of the particular mode of activation, while maintaining isoform selectivity.

For data set [2] the following is noted: literature reports (Frazier et al. 2007; Stauber et al. 2014, chronic ≥3 months); cited from earlier work.
For data set [3] the following is noted: Stauber et al. 2014, chronic (≥3 months) administration; cited from earlier work.

These results are taken from patent US11214614B2, “LTBP complex-specific inhibitors of TGFβ and uses thereof” (Scholar Rock, Inc., priority 2019, dated 2022).

Molecules are shown by their SMILES.

In the case of `c1ccc(-c2nn3c(c2-c2ccnc4cc(OCCN5CCOCC5)ccc24)CCC3)nc1` [LY2109761], the “TGFβ downstream tonic signaling” value in data set [1] was “inhibit TGFβ downstream tonic signaling in non-diseased rat BAL”.

`Cc1cccc(-c2nn3c(c2-c2ccnc4ccc(C(N)=O)cc24)CCC3)n1` [LY2157299]: the Toxicity in rats entry in data set [2] was “caused multiple organ toxicities involving the cardiovascular, gastrointestinal, immune, bone/cartilage, reproductive, and renal systems”. Further, the Toxicity in dogs result in data set [3] was “caused multiple organ toxicities involving the cardiovascular, gastrointestinal, immune, bone/cartilage, reproductive, and renal systems”.
